Laboratory results: PubChem BioAssay (NCI)
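How tested: cells in 96-well plates exposed to compound for 48 hours at five concentrations. TGI: total growth inhibition.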

Legend:
Test in all cases: NCI tumour cell line growth inhibition, 48 h
A498 renal = system: A498 renal
HCT-15 colon = system: HCT-15 colon
DMS 273 small cell lung = system: DMS 273 small cell lung
DLD-1 colon = system: DLD-1 colon
UACC-257 melanoma = system: UACC-257 melanoma
HOP-62 NSCLC = system: HOP-62 NSCLC
DMS 114 small cell lung = system: DMS 114 small cell lung
KM12 colon = system: KM12 colon
HOP-18 NSCLC = system: HOP-18 NSCLC
LXFL 529 NSCLC = system: LXFL 529 NSCLC
M19-MEL melanoma = system: M19-MEL melanoma
XF 498 CNS = system: XF 498 CNS
UO-31 renal = system: UO-31 renal
SNB-78 CNS = system: SNB-78 CNS
KM20L2 colon = system: KM20L2 colon
BT-549 breast = system: BT-549 breast
HS 578T breast = system: HS 578T breast
PC-3 prostate = system: PC-3 prostate

Compound	TGI (A498 renal) [µM]	TGI (HCT-15 colon) [µM]	TGI (DMS 273 small cell lung) [µM]	TGI (DLD-1 colon) [µM]	TGI (UACC-257 melanoma) [µM]	TGI (HOP-62 NSCLC) [µM]	TGI (DMS 114 small cell lung) [µM]	TGI (KM12 colon) [µM]	TGI (HOP-18 NSCLC) [µM]	TGI (LXFL 529 NSCLC) [µM]	TGI (M19-MEL melanoma) [µM]	TGI (XF 498 CNS) [µM]	TGI (UO-31 renal) [µM]	TGI (SNB-78 CNS) [µM]	TGI (KM20L2 colon) [µM]	TGI (BT-549 breast) [µM]	TGI (HS 578T breast) [µM]	TGI (PC-3 prostate) [µM]
COc1cccc2c1c1ccc3c(c1n2C)C(=O)C=CC3=O	> 100	31.8	32.2	31.2	30.3	> 100	43.4	> 100	29	24.4	2.52	29.4	44.2	42.5	> 100			
COc1ccc(CNc2cnc3cc(N)ccc3n2)cc1		> 100	> 100			> 100	> 100	> 100		> 100	> 100	> 100	> 100	> 100	> 100			
C=C(C)C12CC3CC(/C(=N/O)C(C1)/C3=N\O)[C@@]2(C)O (stereo partly drawn)		> 100	> 100	> 100	> 100	> 100	> 100			> 100	> 100		> 100	> 100	> 100			
Cc1ccc(CC2(C(=O)O)Cc3ccc(C)cc3C2)cc1 (stereo not drawn)	> 100	> 100			> 100	> 100		> 100					> 100			> 100	> 100	> 100
Cc1cc(NC2=CC(=O)C(=O)c3ccccc32)no1	33.1	19			16.7	32.5		29.7					20.4			13.4	40.9	53.9
C[C@H](C1CC(C)(O)C(C)(O)C(O)O1)[C@H]1CC[C@H]2[C@@H]3[C@@H]4O[C@@H]4[C@@]4(O)CC=CC(=O)[C@]4(C)[C@H]3CC[C@]12C (stereo partly drawn)	> 50	> 50			> 50	> 50		> 50					> 50			> 50	17.4	> 50
CN1C(=O)C2(C)SC1(c1ccccc1)C1C(=O)N(c3ccccc3)C(=O)C12 (stereo not drawn)	> 100	> 100			93.3	> 100		> 100					> 100			> 100	> 100	> 100
CO/C=C/C=C(\C#N)C(=O)OC	> 100	> 100			> 100	> 100		> 100					> 100			> 100	> 100	> 100
O=C1NC2c3c(I)sc(I)c3C(=O)C2O1 (stereo not drawn)	22.4	3.63			12.2	28.1		24.3					12.2			15.9	35.1	19
O=C(C=P(c1ccccc1)(c1ccccc1)c1ccccc1)c1ccc(-c2cccs2)cc1	10.8	24.7			6.35	20.7		15					14.4			40.7	49.4	15.7
COc1cc(C2C(Cl)C(=O)N2NC(=O)Cc2ccccc2)cc(Br)c1O (stereo not drawn)		> 100	> 100	> 100	> 100	> 100	> 100	> 100	> 100	> 100	> 100	> 100	> 100	> 100	> 100			
O=c1ccc2ccc(OP(=O)(O)O)cc2o1	> 100	> 100			> 100	> 100		> 100					> 100			> 100	> 100	> 100
OC12c3ccccc3C1CCCCC2N1CCCC1 (stereo not drawn)		> 100	> 100		> 100	> 100	> 100	> 100	> 100	> 100	> 100		> 100	> 100	> 100			
Nc1nc(Cl)cc(NCC2(O)CCC2)n1	> 100	> 100			> 100	> 100		> 100					> 100			> 100	> 100	> 100
CC(C)(O)C(O)COc1c2c(cc3oc(=O)ccc13)OCO2 (stereo not drawn)	> 100	> 100	> 100	> 100	> 100	> 100	> 100	> 100	> 100	> 100	> 100	> 100	> 100		> 100			
